From US10202387B2, “Heterocyclyl linked imidazopyridazine derivatives as PI3KB inhibitors” (Janssen Pharmaceutica NV, priority 2014, dated 2019)

Experiments:
[1] = system: Akt phosphorylated at Ser473 in PC-3 cells; test: Cellular assay: phosphorylation of Akt (Ser473) in PC-3 cells, MSD ELISA; format: cell-based; settings: Homo sapiens, 1 h, 60 min incubation with compound, read-out: IC50 pAkt_S473
Procedure: (§1) Cellular activity of PI3Kβ inhibitors was determined by quantifying the phosphorylation of Akt in PC-3 cells. Akt phosphorylated at Ser473 and Thr308 were measured using an enzyme-linked immunosorbent assay (ELISA; Meso Scale Discovery (MSD). Gaithersburg, Md.) and specific primary antibodies from MSD.
(§2) On day 1, PC3 cells (ATCC […]) were seeded into PerkinElmer MW96 plates at 25.000 cells per well, in 75 μl complete culture medium (DMEM (Dulbecco's Modified Eagle's Medium) high glucose. AQmedia™, D0819, Sigma-Aldrich) containing 10% heat inactivated FCS (Fetal Bovine Serum) and incubated at 37° C., 5% CO2 during 24 hours. On day 2, compound or DMSO (dimethyl sulfoxide) (0.3%) was added and cells were further incubated for 60 min at 37° C., 5% CO2 in a total volume of 100 μl of medium.
(§3) The phosphoprotein assay was executed according to vendor instructions in the Phospho-Akt (Ser473) Assay Whole Cell Lysate Kit (MSD #K15100D-3) and the Phospho-Akt (Thr308) Assay Whole Cell Lysate Kit (MSD #K151DYD-3) using the lysis, blocking and wash buffer provided.
(§4) Briefly, at the end of the cell treatment period, media were removed by aspiration and adherent cells were lysed in 50 μl ice-cold lysis buffer. MSD plates are supplied pre-coated with capture antibodies for Phospho-Akt (Ser473 and Thr308). After blocking, lysates from tissue culture plates were added and plates were washed. Then, a solution containing the detection antibody (anti-total Akt conjugated with an electrochemiluminescent compound-MSD Sulfo-tag label) was added. The signals were detected using an MSD SECTOR Imager 6000 and are proportional to the phospho-Akt titres.
(§5) Data were processed. The percentage of inhibition was plotted against the log concentration of test compounds, and the sigmoidal log concentration-effect curve of best fit was calculated by nonlinear regression analysis. From these concentration-response curves, the IC50 values were calculated. Five concentrations were used for curve fitting.

[2] = target: T1, MTOR_h (Homo sapiens, UniProt P42345); test: Enzyme binding assay (KINOMEscan); settings: DiscoveRx
T1 construct: purchased DiscoveRx Corporation, San Diego (KINOMEscan service)
Procedure: (§6) Enzyme Binding Assays (KINOMEscan®)
(§7) Kinase enzyme binding affinities of compounds disclosed herein were determined using the KINOMEscan technology performed by DiscoveRx Corporation, San Diego, Calif., USA (www.kinomescan.com). Table A reports the obtained Kd values (nM), with the Kd being the inhibitor binding constant: […]

[3] = target: T2, PIK3Cβ_h (Homo sapiens, UniProt P42338); test: Enzyme binding assay (KINOMEscan); settings: DiscoveRx
T2 construct: purchased DiscoveRx Corporation, San Diego (KINOMEscan service)
Procedure: as §6, §7

[4] = target: T3, PIK3Cδ_h (Homo sapiens, UniProt O00329); test: Enzyme binding assay (KINOMEscan); settings: DiscoveRx
T3 construct: purchased DiscoveRx Corporation, San Diego (KINOMEscan service)
T3 sequence (O00329 1-1044): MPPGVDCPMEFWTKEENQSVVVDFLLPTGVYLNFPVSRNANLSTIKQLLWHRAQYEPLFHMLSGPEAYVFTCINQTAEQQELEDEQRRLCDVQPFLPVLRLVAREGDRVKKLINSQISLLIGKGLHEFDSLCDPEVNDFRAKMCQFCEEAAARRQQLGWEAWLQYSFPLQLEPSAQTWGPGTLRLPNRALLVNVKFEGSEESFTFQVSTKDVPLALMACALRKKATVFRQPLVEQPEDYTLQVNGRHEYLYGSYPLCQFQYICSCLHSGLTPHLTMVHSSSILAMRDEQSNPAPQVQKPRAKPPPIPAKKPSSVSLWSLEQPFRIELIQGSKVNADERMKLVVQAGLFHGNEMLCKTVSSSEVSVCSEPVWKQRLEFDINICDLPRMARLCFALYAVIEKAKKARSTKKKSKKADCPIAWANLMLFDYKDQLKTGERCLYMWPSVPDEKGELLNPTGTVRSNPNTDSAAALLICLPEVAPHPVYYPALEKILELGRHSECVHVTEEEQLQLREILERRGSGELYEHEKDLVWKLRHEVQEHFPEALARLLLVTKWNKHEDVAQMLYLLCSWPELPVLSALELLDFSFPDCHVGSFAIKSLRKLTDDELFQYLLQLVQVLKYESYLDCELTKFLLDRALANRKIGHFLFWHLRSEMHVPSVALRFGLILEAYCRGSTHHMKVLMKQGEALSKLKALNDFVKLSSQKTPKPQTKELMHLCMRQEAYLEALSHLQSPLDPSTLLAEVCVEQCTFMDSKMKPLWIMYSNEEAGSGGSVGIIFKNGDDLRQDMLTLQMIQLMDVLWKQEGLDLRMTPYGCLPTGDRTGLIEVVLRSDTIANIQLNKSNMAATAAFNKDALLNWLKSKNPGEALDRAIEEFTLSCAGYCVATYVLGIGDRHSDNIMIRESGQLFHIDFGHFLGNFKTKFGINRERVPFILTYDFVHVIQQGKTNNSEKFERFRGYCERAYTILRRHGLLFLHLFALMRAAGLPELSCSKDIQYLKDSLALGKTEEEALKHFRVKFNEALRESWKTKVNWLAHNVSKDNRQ
Procedure: as §6, §7

[5] = target: T4, PIK3Cγ_h (Homo sapiens, UniProt P48736); test: Enzyme binding assay (KINOMEscan); settings: DiscoveRx
T4 construct: purchased DiscoveRx Corporation, San Diego (KINOMEscan service)
Procedure: as §6, §7

[6] = target: T5, PIK3Cα_h (Homo sapiens, UniProt P42336); test: Enzyme binding assay (KINOMEscan); settings: DiscoveRx
T5 construct: purchased DiscoveRx Corporation, San Diego (KINOMEscan service)
Procedure: as §6, §7

[7] = system: Akt phosphorylated at Thr308 in PC-3 cells; test: Cellular assay: phosphorylation of Akt (Thr308) in PC-3 cells, MSD ELISA; format: cell-based; settings: Homo sapiens, 1 h, 60 min incubation with compound, read-out: IC50 pAkt_Thr308
Procedure: as §1, §2, §3, §4, §5

T4 sequence (P48736 whole entry): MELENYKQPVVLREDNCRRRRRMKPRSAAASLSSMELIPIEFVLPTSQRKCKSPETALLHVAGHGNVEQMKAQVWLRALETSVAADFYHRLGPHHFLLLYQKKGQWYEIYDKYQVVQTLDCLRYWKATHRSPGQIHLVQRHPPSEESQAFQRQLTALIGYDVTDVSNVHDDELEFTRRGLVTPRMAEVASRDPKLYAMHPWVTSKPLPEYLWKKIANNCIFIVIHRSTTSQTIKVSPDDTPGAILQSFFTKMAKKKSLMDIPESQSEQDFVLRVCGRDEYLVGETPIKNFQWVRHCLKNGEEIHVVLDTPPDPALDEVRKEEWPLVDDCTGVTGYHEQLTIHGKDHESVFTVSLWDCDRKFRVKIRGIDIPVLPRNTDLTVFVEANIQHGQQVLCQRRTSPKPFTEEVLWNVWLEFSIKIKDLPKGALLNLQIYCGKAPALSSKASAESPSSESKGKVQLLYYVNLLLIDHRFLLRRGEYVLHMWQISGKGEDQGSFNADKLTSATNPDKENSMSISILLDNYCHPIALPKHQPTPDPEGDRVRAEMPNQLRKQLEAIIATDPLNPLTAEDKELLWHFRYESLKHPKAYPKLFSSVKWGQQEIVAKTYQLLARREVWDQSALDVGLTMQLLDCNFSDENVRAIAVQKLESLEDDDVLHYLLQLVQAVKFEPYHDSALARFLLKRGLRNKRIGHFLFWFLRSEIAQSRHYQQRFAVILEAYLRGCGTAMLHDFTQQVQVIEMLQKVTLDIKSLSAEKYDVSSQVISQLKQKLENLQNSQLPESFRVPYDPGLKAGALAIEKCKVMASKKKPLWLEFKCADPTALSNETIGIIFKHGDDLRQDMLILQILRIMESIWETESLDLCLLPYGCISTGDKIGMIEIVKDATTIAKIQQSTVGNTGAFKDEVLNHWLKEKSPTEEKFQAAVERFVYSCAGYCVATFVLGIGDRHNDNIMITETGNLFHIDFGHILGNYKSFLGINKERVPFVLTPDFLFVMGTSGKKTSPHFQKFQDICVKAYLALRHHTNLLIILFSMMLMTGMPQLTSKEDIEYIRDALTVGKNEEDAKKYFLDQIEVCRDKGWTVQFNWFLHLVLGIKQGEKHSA
T5 sequence (P42336 whole entry): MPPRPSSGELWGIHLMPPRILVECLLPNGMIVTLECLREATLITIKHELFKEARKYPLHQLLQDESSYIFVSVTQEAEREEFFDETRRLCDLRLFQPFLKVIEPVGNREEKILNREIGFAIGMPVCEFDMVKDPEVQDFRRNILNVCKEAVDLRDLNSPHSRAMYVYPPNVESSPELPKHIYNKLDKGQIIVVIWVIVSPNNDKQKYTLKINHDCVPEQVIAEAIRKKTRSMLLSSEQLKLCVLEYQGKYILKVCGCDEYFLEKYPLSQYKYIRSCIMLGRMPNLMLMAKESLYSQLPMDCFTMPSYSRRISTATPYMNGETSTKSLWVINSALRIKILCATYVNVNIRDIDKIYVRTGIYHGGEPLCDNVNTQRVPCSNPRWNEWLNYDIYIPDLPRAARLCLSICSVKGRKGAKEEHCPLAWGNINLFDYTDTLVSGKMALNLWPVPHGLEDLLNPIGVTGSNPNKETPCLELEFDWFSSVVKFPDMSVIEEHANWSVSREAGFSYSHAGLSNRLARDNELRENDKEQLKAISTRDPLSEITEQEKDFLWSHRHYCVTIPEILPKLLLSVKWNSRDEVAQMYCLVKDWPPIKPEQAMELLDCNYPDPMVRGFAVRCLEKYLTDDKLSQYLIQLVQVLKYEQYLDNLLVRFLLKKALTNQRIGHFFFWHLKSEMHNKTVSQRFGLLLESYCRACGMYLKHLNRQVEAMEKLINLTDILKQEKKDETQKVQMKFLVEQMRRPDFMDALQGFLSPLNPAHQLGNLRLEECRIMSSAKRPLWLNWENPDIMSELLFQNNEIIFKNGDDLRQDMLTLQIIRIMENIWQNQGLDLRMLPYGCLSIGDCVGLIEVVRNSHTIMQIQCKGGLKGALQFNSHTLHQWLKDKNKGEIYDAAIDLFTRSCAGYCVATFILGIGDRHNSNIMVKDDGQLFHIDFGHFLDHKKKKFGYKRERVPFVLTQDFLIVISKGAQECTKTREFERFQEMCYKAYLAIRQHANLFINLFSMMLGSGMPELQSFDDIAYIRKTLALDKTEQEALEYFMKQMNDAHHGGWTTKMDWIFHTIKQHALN
T2 sequence (P42338 whole entry): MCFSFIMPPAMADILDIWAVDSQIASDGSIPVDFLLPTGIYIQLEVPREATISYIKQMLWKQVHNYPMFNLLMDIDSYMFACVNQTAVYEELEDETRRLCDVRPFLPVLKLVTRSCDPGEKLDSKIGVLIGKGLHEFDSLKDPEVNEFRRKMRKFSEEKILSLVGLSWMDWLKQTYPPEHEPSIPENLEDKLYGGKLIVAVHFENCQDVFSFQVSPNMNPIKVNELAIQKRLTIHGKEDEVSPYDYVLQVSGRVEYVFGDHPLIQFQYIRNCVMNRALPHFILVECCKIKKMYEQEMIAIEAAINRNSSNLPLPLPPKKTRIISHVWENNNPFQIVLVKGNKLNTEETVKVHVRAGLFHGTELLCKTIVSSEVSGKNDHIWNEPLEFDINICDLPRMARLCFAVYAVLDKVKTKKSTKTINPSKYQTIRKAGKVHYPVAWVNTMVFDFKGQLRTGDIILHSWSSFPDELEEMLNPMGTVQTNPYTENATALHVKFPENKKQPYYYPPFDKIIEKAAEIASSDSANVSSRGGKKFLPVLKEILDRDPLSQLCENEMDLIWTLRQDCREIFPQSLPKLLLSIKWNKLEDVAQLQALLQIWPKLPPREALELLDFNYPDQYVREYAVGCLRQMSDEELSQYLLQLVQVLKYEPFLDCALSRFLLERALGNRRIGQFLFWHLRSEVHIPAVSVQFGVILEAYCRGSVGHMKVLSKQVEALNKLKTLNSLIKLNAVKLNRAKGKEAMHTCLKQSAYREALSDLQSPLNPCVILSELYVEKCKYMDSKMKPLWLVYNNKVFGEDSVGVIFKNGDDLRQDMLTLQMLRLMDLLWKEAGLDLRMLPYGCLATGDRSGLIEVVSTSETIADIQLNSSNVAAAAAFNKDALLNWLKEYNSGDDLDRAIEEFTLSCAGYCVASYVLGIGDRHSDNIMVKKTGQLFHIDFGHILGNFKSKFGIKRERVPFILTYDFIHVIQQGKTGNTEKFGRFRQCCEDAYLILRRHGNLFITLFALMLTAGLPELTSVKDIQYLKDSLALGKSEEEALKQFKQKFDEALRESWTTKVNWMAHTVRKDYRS

SMILES | melting point [°C] | IC50 [1] [nM] | Kd [2] [nM] | Kd [3] [nM] | Kd [4] [nM] | Kd [5] [nM] | Kd [6] [nM] | IC50 [7] [nM]
Cc1c(Cc2c(CNC(=O)[C@H]3CCCN3)nc3c(N)cc(N4CCOCC4)nn23)cccc1C(F)(F)F (stereo in doubt) [Compound 37] | 212 | 158 | 5130 | 0.8 | 68 | 4900 | 5490 | 141
Cc1c(Cc2c(CN3CCS(=O)(=O)CC3)nc3c(N)cc(N4CCOCC4)nn23)cccc1C(F)(F)F [Compound 11] | 214 | 10 | 11700 | 0.7 | 81 | > 30200 | 1860 | 7
Cc1c(Cc2c(CN3CC4(C3)CS(=O)(=O)C4)nc3c(-c4ncc[nH]4)cc(N4CCOCC4)nn23)cccc1C(F)(F)F [Compound 20] | 150 | ~34 | 9330 | 1.3 | 32 | 1550 | 275 | ~20
Cc1c(Cc2c(CC(=O)N3CCS(=O)(=O)CC3)nc3c(N)cc(N4CCOCC4)nn23)cccc1C(F)(F)F [Compound 23] | 226 | ~79 | > 30200 | 1.5 | 240 | > 30200 | 2240 | ~68
Cc1c(Cc2c(CC(=O)N3CC(CO)C3)nc3c(N)cc(N4CCOCC4)nn23)cccc1C(F)(F)F [Compound 24] | 130 | 49 | 3980 | 0.5 | 52 | 17000 | 3160 | 15
Cc1c(Cc2c(CN3CC(C)NC(C)C3)nc3c(-c4ccn[nH]4)cc(N4CCOCC4)nn23)cccc1C(F)(F)F (centres unmarked) [Compound 25] | 159 | 214 | 407 | 2 | 98 | 5250 | 1150 | 234
Cc1c(Cc2c(CN3CC4(C3)CS(=O)(=O)C4)nc3c(C(N)=O)cc(N4CCOCC4)nn23)cccc1C(F)(F)F [Compound 26] | 216 | 275 | > 30200 | 3 | 372 | 10700 | 692 | ~62
Cc1c(Cc2c(CN3CCC4(CCS4(=O)=O)C3)nc3c(N)cc(N4CCOCC4)nn23)cccc1C(F)(F)F (centres unmarked) [Compound 32] | 214 | 91 | > 30200 | 2.5 | 251 | > 30200 | 15100 | 74
Cc1c(Cc2c(CN3CCC4(CCCCS4(=O)=O)C3)nc3c(N)cc(N4CCOCC4)nn23)cccc1C(F)(F)F (centres unmarked) [Compound 33] | 228 | 120 | > 30200 | 3 | 398 | > 30200 | 13500 | 100
Cc1c(Cc2c(CNC(=O)[C@@H]3C[C@@H](O)CN3)nc3c(N)cc(N4CCOCC4)nn23)cccc1C(F)(F)F [Compound 36] | 140 | ~73 | 3140 | 0.1 | 5 | 3000 | 1390 | ~50

The remaining compounds from weak to strong by IC50 [1], led by results:

melting point [°C] | IC50 [1] [nM] | Kd [2] [nM] | Kd [3] [nM] | Kd [4] [nM] | Kd [5] [nM] | Kd [6] [nM] | IC50 [7] [nM] | SMILES
215 | 76 | > 30200 | 0.6 | 65 | > 30200 | 14500 | ~39 | Cc1c(Cc2c(CN3CCC(CO)CC3)nc3c(N)cc(N4CCOCC4)nn23)cccc1C(F)(F)F [Compound 9]
171 | 65 | > 30200 | < 1.5 | 79 | 6760 | 813 | 58 | Cc1c(Cc2c(CN3CCCC(CO)C3)nc3c(-c4ncc[nH]4)cc(N4CCOCC4)nn23)cccc1C(F)(F)F (centres unmarked) [Compound 17]
198 | 50 | 4370 | 1.6 | 52 | 891 | 513 | 54 | Cc1c(Cc2c(CN3CC(O)C3)nc3c(-c4ncc[nH]4)cc(N4CCOCC4)nn23)cccc1C(F)(F)F [Compound 19]
110 | 45 | 10700 | 0.5 | 56 | 8910 | 2240 | ~26 | Cc1c(Cc2c(CC(=O)N3CC(C)NC(C)C3)nc3c(N)cc(N4CCOCC4)nn23)cccc1C(F)(F)F (centres unmarked) [Compound 22]
159 | 40 | 21900 | 2.4 | 263 | > 30200 | 7080 | ~13 | Cc1c(Cc2c(CN3CCC(S(C)(=O)=O)C3)nc3c(N)cc(N4CCOCC4)nn23)cccc1C(F)(F)F (centres unmarked) [Compound 6]
210 | 25 | 15500 | 1.6 | 195 | 30900 | 11500 | ~20 | Cc1c(Cc2c(CN3CC(S(C)(=O)=O)C3)nc3c(N)cc(N4CCOCC4)nn23)cccc1C(F)(F)F [Compound 8]
188 | 18 | > 30200 | 2.3 | 166 | > 30200 | 3980 | ~33 | Cc1c(Cc2c(CN3CCC(S(C)(=O)=O)CC3)nc3c(N)cc(N4CCOCC4)nn23)cccc1C(F)(F)F [Compound 4]
217 | 9 | 3160 | 1.2 | 12 | 933 | 162 | ~4 | Cc1c(Cc2c(CN3CC4(C3)CS(=O)(=O)C4)nc3c(-c4cnc[nH]4)cc(N4CCOCC4)nn23)cccc1C(F)(F)F [Compound 1]
180 | 6 | 21400 | 2.1 | 23 | > 30200 | 5490 | ~4 | Cc1c(Cc2c(CN3CC4(CCS4(=O)=O)C3)nc3c(N)cc(N4CCOCC4)nn23)cccc1C(F)(F)F [Compound 2]
